Data on 13 compounds can be found in patent US12264156B2, “Compounds and pharmaceutical compositions thereof for the treatment of diseases” (GALAPAGOS NV, priority 2018, dated 2025).

The target of one assay is T1, SIK1 (Homo sapiens, UniProt P57059).
T1 construct: purchased Carna Biosciences 02-131
As to the kind of experiment: ADP-Glo kinase assay, SIK1. Format: biochemical. To be noted: ADP-Glo SIK kinase assay. The method, boiled down:
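Enzyme–substrate mix was started with ATP and incubated 120 min at RT. ADP formed was quantified by ADP-Glo: 40 min ATP depletion, then 30 min detection reagent converting ADP to ATP for luciferase luminescence, which rises with kinase activity. Controls: 1% DMSO and 10 μM staurosporine (final).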
On the technique in general: ADP-Glo turns the ADP formed in a reaction into a luminescent signal.

In a further assay the target is T2, SIK2 (Homo sapiens, UniProt Q9H0K1).
T2 construct: purchased ThermoFisher Scientific PV4792
Kind of assay: ADP-Glo kinase assay, SIK2. To be noted: ADP-Glo SIK kinase assay. Format: biochemical. Put shortly: (§1)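 ADP-Glo luminescent assay of ADP formed by SIK2 or SIK3 with substrate after ATP addition, 120 min at RT. Remaining ATP depleted 40 min, then ADP converted to ATP and read by luciferase luminescence after 30 min. Controls: 1% DMSO and 10 μM staurosporine (final).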

The next assay addresses T3, SIK3 (Homo sapiens, UniProt Q9Y2K2).
T3 construct: purchased SignalChem S12-11G-100
As to the kind of experiment: ADP-Glo kinase assay, SIK3. Type of assay: biochemical. As to conditions: ADP-Glo SIK kinase assay. Put shortly:
as §1

The test system of assay [1] is LPS-induced TNFα in monocytes. As to the kind of experiment: Monocytes assay: LPS-triggered TNFα (ELISA). As to conditions: Homo sapiens, Monocyte, LPS 200 ng/mL, supernatant after 4 h. Format: cell-based, human. Put shortly: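 Supernatant TNFα was quantified by luminol-based sandwich ELISA after 4 h stimulation with LPS (200 ng/mL final). The cells were CD14-bead-purified monocytes from human PBMCs, 100 000 per well, exposed to 3-fold compound dilutions for 1 h at 37° C beforehand, with DMSO at 0.2%. Results are reported as percent inhibition.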
Background: ELISA stands for enzyme-linked immunosorbent assay.

The subject of assay [2] is LPS triggered IL-10 secretion in monocytes. As to the kind of experiment: Monocytes assay: LPS-triggered IL-10 (ELISA). To be noted: LPS 200 ng/mL, supernatant after 4 h, maximal fold change vs LPS only. Format: cell-based, human. The method, boiled down: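 Human CD14+ monocytes, magnetically isolated from buffy-coat PBMCs, were seeded at 100 000 cells/well and preincubated with compound for 1 h at 37° C (0.2% DMSO). LPS was then added at a final 200 ng/mL for 4 h. Supernatant IL-10 was quantified by chemiluminescent sandwich ELISA against a standard curve.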

Broadly, the IC50 is the midpoint of a concentration-inhibition curve. A word on the EC50: it is the concentration needed to bring the measured effect to its halfway point. Lower therefore signals greater potency.

T2 sequence (Q9H0K1 whole entry): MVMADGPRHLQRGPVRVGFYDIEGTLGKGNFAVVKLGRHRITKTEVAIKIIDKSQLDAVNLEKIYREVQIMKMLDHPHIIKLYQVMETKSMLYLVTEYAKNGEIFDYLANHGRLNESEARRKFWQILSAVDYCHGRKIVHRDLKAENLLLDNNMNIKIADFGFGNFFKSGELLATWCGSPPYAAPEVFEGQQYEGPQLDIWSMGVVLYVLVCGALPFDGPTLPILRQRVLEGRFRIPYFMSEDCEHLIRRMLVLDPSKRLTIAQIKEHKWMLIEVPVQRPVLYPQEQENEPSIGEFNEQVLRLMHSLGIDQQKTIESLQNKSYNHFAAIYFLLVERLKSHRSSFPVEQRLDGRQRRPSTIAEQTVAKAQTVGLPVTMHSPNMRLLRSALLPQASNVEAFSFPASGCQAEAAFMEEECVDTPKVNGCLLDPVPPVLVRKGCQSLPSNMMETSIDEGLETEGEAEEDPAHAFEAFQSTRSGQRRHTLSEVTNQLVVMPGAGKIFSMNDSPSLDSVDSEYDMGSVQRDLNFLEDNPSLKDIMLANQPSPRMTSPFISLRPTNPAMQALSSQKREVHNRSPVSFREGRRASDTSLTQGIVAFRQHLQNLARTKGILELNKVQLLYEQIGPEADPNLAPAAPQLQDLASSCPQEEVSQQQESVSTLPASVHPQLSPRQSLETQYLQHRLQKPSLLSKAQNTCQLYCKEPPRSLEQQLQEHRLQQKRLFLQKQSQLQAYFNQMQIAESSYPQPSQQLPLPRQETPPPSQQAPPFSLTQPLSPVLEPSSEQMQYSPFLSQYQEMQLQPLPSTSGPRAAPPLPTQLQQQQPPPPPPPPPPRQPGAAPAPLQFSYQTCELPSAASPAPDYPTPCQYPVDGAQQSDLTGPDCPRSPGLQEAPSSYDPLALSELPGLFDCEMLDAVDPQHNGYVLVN
T3 sequence (Q9Y2K2 whole entry): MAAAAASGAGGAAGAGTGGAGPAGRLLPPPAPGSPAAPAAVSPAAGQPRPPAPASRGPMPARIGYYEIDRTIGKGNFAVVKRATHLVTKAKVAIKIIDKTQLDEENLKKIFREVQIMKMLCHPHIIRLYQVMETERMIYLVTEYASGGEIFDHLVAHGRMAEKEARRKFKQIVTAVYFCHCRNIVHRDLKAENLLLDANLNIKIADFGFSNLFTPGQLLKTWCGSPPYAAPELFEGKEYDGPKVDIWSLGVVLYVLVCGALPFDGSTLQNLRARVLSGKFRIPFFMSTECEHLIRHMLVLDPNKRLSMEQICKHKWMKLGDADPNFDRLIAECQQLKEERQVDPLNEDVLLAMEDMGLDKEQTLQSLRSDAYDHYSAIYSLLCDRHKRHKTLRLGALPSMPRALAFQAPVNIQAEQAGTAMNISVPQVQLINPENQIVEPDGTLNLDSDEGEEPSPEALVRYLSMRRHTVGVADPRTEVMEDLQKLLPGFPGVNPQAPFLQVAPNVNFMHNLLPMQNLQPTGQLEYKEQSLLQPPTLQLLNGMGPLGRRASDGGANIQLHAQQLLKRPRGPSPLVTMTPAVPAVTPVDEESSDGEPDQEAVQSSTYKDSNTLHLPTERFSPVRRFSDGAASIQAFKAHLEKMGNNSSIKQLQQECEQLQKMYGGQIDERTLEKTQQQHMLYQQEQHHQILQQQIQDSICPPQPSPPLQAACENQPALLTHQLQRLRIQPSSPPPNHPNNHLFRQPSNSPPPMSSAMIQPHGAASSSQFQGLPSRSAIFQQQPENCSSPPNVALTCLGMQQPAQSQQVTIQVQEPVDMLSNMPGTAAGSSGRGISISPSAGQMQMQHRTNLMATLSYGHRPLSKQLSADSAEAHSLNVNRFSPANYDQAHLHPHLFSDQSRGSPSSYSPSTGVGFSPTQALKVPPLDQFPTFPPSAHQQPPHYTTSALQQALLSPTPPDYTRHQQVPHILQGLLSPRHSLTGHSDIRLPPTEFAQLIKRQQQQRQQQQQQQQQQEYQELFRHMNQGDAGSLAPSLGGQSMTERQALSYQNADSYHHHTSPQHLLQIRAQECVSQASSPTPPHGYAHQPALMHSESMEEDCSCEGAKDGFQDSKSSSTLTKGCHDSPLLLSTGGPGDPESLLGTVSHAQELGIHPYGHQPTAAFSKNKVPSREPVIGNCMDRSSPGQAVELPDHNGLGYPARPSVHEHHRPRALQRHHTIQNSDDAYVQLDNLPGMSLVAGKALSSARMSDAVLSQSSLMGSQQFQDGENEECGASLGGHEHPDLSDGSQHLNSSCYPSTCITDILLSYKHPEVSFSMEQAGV
T1 sequence (P57059 whole entry): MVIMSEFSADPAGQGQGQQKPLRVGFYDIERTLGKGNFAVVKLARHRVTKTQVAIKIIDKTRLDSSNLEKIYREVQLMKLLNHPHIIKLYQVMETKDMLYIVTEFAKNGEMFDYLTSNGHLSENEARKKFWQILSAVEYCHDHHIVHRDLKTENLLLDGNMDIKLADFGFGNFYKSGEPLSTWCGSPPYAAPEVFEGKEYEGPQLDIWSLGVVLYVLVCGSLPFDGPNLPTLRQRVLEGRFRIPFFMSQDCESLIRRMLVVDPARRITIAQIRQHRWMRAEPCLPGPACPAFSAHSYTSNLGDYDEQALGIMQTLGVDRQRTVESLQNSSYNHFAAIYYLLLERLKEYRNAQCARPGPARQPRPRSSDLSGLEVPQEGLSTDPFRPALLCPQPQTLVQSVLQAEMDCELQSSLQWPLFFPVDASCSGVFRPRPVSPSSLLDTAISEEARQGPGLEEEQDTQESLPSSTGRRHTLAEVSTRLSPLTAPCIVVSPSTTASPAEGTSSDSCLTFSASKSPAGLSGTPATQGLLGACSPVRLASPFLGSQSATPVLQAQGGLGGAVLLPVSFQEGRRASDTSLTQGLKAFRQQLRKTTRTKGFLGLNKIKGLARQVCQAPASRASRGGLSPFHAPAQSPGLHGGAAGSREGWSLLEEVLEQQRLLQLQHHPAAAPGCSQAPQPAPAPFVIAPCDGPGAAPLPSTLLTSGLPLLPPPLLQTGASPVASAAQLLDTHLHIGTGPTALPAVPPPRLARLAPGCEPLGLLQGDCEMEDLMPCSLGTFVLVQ

`COc1cc(-c2cnc3cc(OCCCN4CCC(F)(CO)CC4)ccn23)cc(OC(F)F)c1C(=O)NC1CC1` [compound 360, N-cyclopropyl-2-(difluoromethoxy)-4-[7-[3-[4-fluoro-4-(hydroxymethyl)-1-piperidyl]propoxy]imidazo [1,2-a]pyridin-3-yl]-6-methoxy-benzamide]: the IC50 was 10 to 100 nM on SIK1, 0.01 to 10 nM against SIK2 and 0.01 to 10 nM on SIK3. This compound showed an EC50 in assay [1] (4 h) of 0.1 to 100 nM. Further, the “IL-10 FCmax median” value in assay [2] was “++ (>1.5-4.5)”.
`COc1cc(-c2cnc3cc(OCCCN4CC(C)(O)C4)ccn23)cc(OC(F)F)c1C(=O)NC1CC1` [compound 362, N-cyclopropyl-2-(difluoromethoxy)-4-[7-[3-(3-hydroxy-3-methyl-azetidin-1-yl)propoxy]imidazo[1,2-a]pyridin-3-yl]-6-methoxy-benzamide]: the IC50 is 10 to 100 nM on SIK1, 0.01 to 10 nM at SIK2 and 0.01 to 10 nM against SIK3. Moreover, in assay [1] (4 h), the half-maximal effective concentration (EC50) was in the range of 100 to 1000 nM. In assay [2], the “IL-10 FCmax median” value is reported as “++ (>1.5-4.5)”.
For `COc1cc(-c2cnc3cc(OCC(O)CN4CCS(=O)(=O)CC4)ccn23)cc(OC(F)F)c1C(=O)NC1CC1` (centres unmarked) [compound 374, N-cyclopropyl-2-(difluoromethoxy)-4-[7-[3-(1,1-dioxo-1,4-thiazinan-4-yl)-2-hydroxy-propoxy]imidazo[1,2-a]pyridin-3-yl]-6-methoxy-benzamide], the IC50 against SIK1 lay within 10 to 100 nM; against SIK2, 0.01 to 10 nM; against SIK3, 0.01 to 10 nM. The same compound returned an EC50 in assay [1] (4 h) of 100 to 1000 nM. Besides, in assay [2], the “IL-10 FCmax median” value is listed as “+++ (>4.5)”.
For `COc1cc(-c2cnc3cc(OCC(O)CN4CC(O)(C(F)(F)F)C4)ccn23)cc(OC(F)F)c1C(=O)NC1CC1` (centres unmarked) [compound 375, N-cyclopropyl-2-(difluoromethoxy)-4-[7-[2-hydroxy-3-[3-hydroxy-3-(trifluoromethyl)azetidin-1-yl]propoxy]imidazo[1,2-a]pyridin-3-yl]-6-methoxy-benzamide], the half-maximal inhibitory concentration (IC50) against SIK1 lay in the range of 10 to 100 nM; on SIK2 it was 0.01 to 10 nM; at SIK3, 0.01 to 10 nM. In assay [1] (4 h), this compound registered an EC50 of 100 to 1000 nM. The “IL-10 FCmax median” value in assay [2] is listed as “+++ (>4.5)”.
As for `CCOC(=O)C1CCN(CCCOc2ccn3c(-c4cc(OC)c(C(=O)NC5CC5)c(OC(F)F)c4)cnc3c2)CC1` [compound 377, ethyl 1-[3-[3-[4-(cyclopropylcarbamoyl)-3-(difluoromethoxy)-5-methoxy-phenyl]imidazo[1,2-a]pyridin-7-yl]oxypropyl]piperidine-4-carboxylate], the half-inhibitory concentration (IC50) against SIK1 fell in the range of 10 to 100 nM; against SIK2 it was 0.01 to 10 nM; on SIK3, 0.01 to 10 nM. In assay [1] (4 h), the EC50 was 0.1 to 100 nM. Also, in assay [2], the “IL-10 FCmax median” value is “++ (>1.5-4.5)”.
Consider `CCOC(=O)C1(c2ccccc2)CCN(CCCOc2ccn3c(-c4cc(OC)c(C(=O)NC5CC5)c(OC(F)F)c4)cnc3c2)CC1` [compound 378, ethyl 1-[3-[3-[4-(cyclopropylcarbamoyl)-3-(difluoromethoxy)-5-methoxy-phenyl]imidazo[1,2-a]pyridin-7-yl]oxypropyl]-4-phenyl-piperidine-4-carboxylate], for which the IC50 against SIK1 fell in the range of 10 to 100 nM; against SIK2 it was 0.01 to 10 nM; at SIK3, 0.01 to 10 nM. This compound returned a half-maximal effective concentration (EC50) in assay [1] of 0.1 to 100 nM. Further, in assay [2], the “IL-10 FCmax median” value was “++ (>1.5-4.5)”.
Turning to `COc1cc(-c2cnc3cc(OCC(O)CN4CCC(O)CC4)ccn23)cc(OC(F)F)c1C(=O)NC1CC1` (centres unmarked) [compound 379, N-cyclopropyl-2-(difluoromethoxy)-4-[7-[2-hydroxy-3-(4-hydroxy-1-piperidyl)propoxy]imidazo [1,2-a]pyridin-3-yl]-6-methoxy-benzamide], the IC50 against SIK1 was in the range of 10 to 100 nM; on SIK2, 0.01 to 10 nM; on SIK3, 0.01 to 10 nM. Also, the half-maximal effective concentration (EC50) in assay [1] (4 h) fell in the range of 100 to 1000 nM. The “IL-10 FCmax median” value in assay [2] is “++ (>1.5-4.5)”.
Consider `CCOC(=O)C1(C)CCN(CCCOc2ccn3c(-c4cc(OC)c(C(=O)NC5CC5)c(OC(F)F)c4)cnc3c2)CC1` [compound 380, ethyl 1-[3-[3-[4-(cyclopropylcarbamoyl)-3-(difluoromethoxy)-5-methoxy-phenyl]imidazo[1,2-a]pyridin-7-yl]oxypropyl]-4-methyl-piperidine-4-carboxylate], for which the half-inhibitory concentration (IC50) fell in the range of 10 to 100 nM against SIK1, 0.01 to 10 nM against SIK2 and 0.01 to 10 nM at SIK3. This compound also returned a concentration giving a half-maximal response (EC50) in assay [1] (4 h) of 0.1 to 100 nM. The “IL-10 FCmax median” value in assay [2] is listed as “++ (>1.5-4.5)”.
As for `CCOC(=O)C1(O)CCN(CCCOc2ccn3c(-c4cc(OC)c(C(=O)NC5CC5)c(OC(F)F)c4)cnc3c2)CC1` [compound 381, ethyl 1-[3-[3-[4-(cyclopropylcarbamoyl)-3-(difluoromethoxy)-5-methoxy-phenyl]imidazo[1,2-a]pyridin-7-yl]oxypropyl]-4-hydroxy-piperidine-4-carboxylate], the results for the concentration for half-maximal inhibition (IC50) against SIK1, against SIK2 and on SIK3 were 10 to 100 nM, 0.01 to 10 nM and 0.01 to 10 nM, respectively. This compound also registered an EC50 in assay [1] (4 h) of 0.1 to 100 nM. In assay [2], the “IL-10 FCmax median” value is recorded as “++ (>1.5-4.5)”.
As for `CCOC(=O)C1(C)CCN(CC(O)COc2ccn3c(-c4cc(OC)c(C(=O)NC5CC5)c(OC(F)F)c4)cnc3c2)CC1` (centres unmarked) [compound 382, ethyl 1-[3-[3-[4-(cyclopropylcarbamoyl)-3-(difluoromethoxy)-5-methoxy-phenyl]imidazo[1,2-a]pyridin-7-yl]oxy-2-hydroxy-propyl]-4-methyl-piperidine-4-carboxylate], the IC50 against SIK1 lay within 10 to 100 nM; at SIK2, 0.01 to 10 nM; at SIK3, 0.01 to 10 nM. The same compound returned an EC50 in assay [1] (4 h) of 0.1 to 100 nM. Further, the “IL-10 FCmax median” value in assay [2] is on record as “++ (>1.5-4.5)”.
Consider `CCOC(=O)C1(O)CCN(CC(O)COc2ccn3c(-c4cc(OC)c(C(=O)NC5CC5)c(OC(F)F)c4)cnc3c2)CC1` (centres unmarked) [compound 383, ethyl 1-[3-[3-[4-(cyclopropylcarbamoyl)-3-(difluoromethoxy)-5-methoxy-phenyl]imidazo[1,2-a]pyridin-7-yl]oxy-2-hydroxy-propyl]-4-hydroxy-piperidine-4-carboxylate], for which the IC50 against SIK1 was in the range of 10 to 100 nM; at SIK2 it was 0.01 to 10 nM; against SIK3, 0.01 to 10 nM. In assay [1] (4 h), this compound had a concentration for a half-maximal effect (EC50) of 100 to 1000 nM. For the same compound, the “IL-10 FCmax median” value in assay [2] is on record as “++ (>1.5-4.5)”.
On to `CCOC(=O)C1(C)CN(CCCOc2ccn3c(-c4cc(OC)c(C(=O)NC5CC5)c(OC(F)F)c4)cnc3c2)C1` [compound 385, ethyl 1-[3-[3-[4-(cyclopropylcarbamoyl)-3-(difluoromethoxy)-5-methoxy-phenyl]imidazo[1,2-a]pyridin-7-yl]oxypropyl]-3-methyl-azetidine-3-carboxylate], for which the results for the 50% inhibitory concentration (IC50) against SIK1, against SIK2 and at SIK3 were 10 to 100 nM, 0.01 to 10 nM and 0.01 to 10 nM, respectively. Further, in assay [1] (4 h), the EC50 was 0.1 to 100 nM. The “IL-10 FCmax median” value in assay [2] is listed as “+++ (>4.5)”.
Take `COC(=O)[C@@H]1CN(CC(O)COc2ccn3c(-c4cc(OC)c(C(=O)NC5CC5)c(OC(F)F)c4)cnc3c2)CCO1` (stereo partly drawn) [compound 388, methyl (2S)-4-[3-[3-[4-(cyclopropylcarbamoyl)-3-(difluoromethoxy)-5-methoxy-phenyl]imidazo[1,2-a]pyridin-7-yl]oxy-2-hydroxy-propyl]morpholine-2-carboxylate]: the concentration for half-maximal inhibition (IC50) against SIK1 was in the range of 10 to 100 nM; on SIK2 it was 0.01 to 10 nM; against SIK3 it was 0.01 to 10 nM. This compound returned an EC50 in assay [1] (4 h) of 100 to 1000 nM. Moreover, the “IL-10 FCmax median” value in assay [2] is “+++ (>4.5)”.
